Measured values reported in PMC9716151, “Synthesis, antimalarial, antileishmanial evaluation, and molecular docking study of some 3-aryl-2-styryl substituted-4(3H)-quinazolinone derivatives” (BMC Chemistry, 2022).
In brackets after ≈: the same amount, converted by molar mass. Like-named read-outs stand apart in the source and are kept apart here. Values belong to the molecule of their own block, whether it stands above or below them.

Legend:
[1] = test system: Plasmodium berghei ANKA strain; test: four-day standard suppressive test in infected mice; type: in vivo, Plasmodium berghei (Swiss albino mice); conditions: for % Parasitemia: smear on 5th day, mean ± SD; for inhibition in vivo at 48.46 µmol/kg: Plasmodium berghei, 96 h, read-out: % Suppression
Text: In the present study, the in vivo antimalarial activities of the synthesized compounds were investigated using a mouse model which is ideal to elucidate the prodrug effects of the target compounds triggered by metabolic activation and eradication of infection due to the potential involvement of the immune system. To achieve a steady state infection against the experimental animals, Plasmodium berghei ANKA strain served as a parasite in the experiment and the effects of the target compounds was assessed by the standard four-day suppressive test (often employed to evaluate early infections) in terms of percent inhibition of parasitemia which is recognized as most trustworthy parameter in vivo antimalarial studies. Herein, the standard antimalarial drug chloroquine phosphate (CQ) and equimolar amounts (48.46 µmol/Kg) of the target 3-aryl-2-styry substituted-4(3H)-quinazolinone derivatives were administered orally and the % suppression, parasitemia level, and the survival time of mice were compared against mice treated with a formulation containing a solution of 7% Tween 80, and 3% ethanol in distilled water (control group).
Swiss albino male mice of weight 20–32 g and age 6–8 weeks were used for the antimalarial activity and acute toxicity tests. Plasmodium berghei ANKA strain is used to infect the mice for a four-day suppressive test, were obtained from Biomedical Laboratory, Department of Biology, Faculty of Science, AAU. Leishmania donovani isolate used in this study was obtained from the Leishmania Diagnosis and Research Laboratory (LDRL) culture bank, School of Medicine, AAU.
The antimalarial activities of the target compounds were assessed by the four-day standard suppressive test against mice infected with Plasmodium berghei. The mice were acclimatized to the experimental conditions in the animal house of Biomedical Laboratory, Addis Ababa University, Faculty of Science, Department of Biology, for seven days prior to the in vivo antimalarial activity testing. In due course, the mice were subjected to live in standard cages with a pelleted diet and water. To trigger a steadily rising infection in mice, blood infected with Plasmodium berghei ANKA strain (approximately 20–30% level of parasitemia) was collected from a donor mice using a syringe supplemented with 0.5% trisodium citrate and diluted in physiological saline to […]. Then, 0.2 mL of inoculum (supposed to have about 2 × 10^7 parasites) was injected into each mouse through the intraperitoneal route to achieve the desired level of infection within a short period of time. After 2 h of post-infection, the mice were carefully weighed using a digital balance and randomly assigned into nine groups where each group contain five mice. Of which, mice assigned as a negative control (Group 1) subjected to the formulation composed of 7% Tween 80, and 3% ethanol in distilled water (2 mL/100 g). In addition, mice which belong to the positive control (Group 2) was treated with 25 mg/kg/day (0.04846 mmol/kg/day) of chloroquine phosphate (CQ). The remaining groups (3–9) were subjected to oral treatment with equimolar amounts of the respective target compounds for four consecutive days. Finally, a blood smear was taken from the tail of the mice in the 5th day (24 h after the last dose), air-dried, fixed with absolute methanol and treated with 6% Giemsa stain. The mean parasitemia level of each group (control and treatment groups) was computed microscopically by counting the number of erythrocytes in four fields (⁓100 erythrocytes per field).

[2] = test system: Leishmania donovani promastigotes (clinical isolate); test: in vitro antipromastigote activity test (AlamarBlue/resazurin); type: cell-based; conditions: for IC50: Leishmania donovani
Experimental: The antipromastigote activities of the synthesized compounds and the existing antileishmanial drugs (miltefosine and amphotericin B deoxycholate) were assessed using the clinical isolate of the Leishmania donovani strain, which is known to cause VL worldwide. The soluble, stable and non-toxic fluorescence dye, AlamarBlue® (resazurin) (Trek Diagnostic Systems, Inc., Cleveland, OH, USA) was used to quantitatively determine the viability of Leishmania donovani and compute the IC50 value of target compounds and the reference drugs. Only metabolically active cells can reduce resazurin and convert into fluorescent resorufin. Thus, the fluorescent intensity of resorufin is directly correlated to the number of viable Leishmania donovani cells. […] Inspired by its promising antileishmanial outcome, (E)-2-(4-nitrostyryl)-3-phenylquinazolin-4(3H)-one (6) was subjected to molecular docking study by fitting it in Lm-PTR1 active site to gain an insight about the types of interactions between the simulated enzyme and itself.
RPMI-1640, 10% heat-inactivated fetal calf serum (HIFCS), 1% penicillin–streptomycin, and 1% L-glutamine were supplied to make a complete culture medium. The Leishmania donovani isolate was grown first on Novy-MacNeal-Nicolle (NNN) medium and then in tissue-culture flasks containing RPMI 1640 medium supplemented with 10% HIFCS and 1% 100 IU penicillin/mL-100 µg/mL streptomycin solution at 22 ℃ for promastigotes.
Stock solutions of 10 mg/mL of the synthesized compounds were prepared by dissolving each compound in DMSO for the antileishmanial activity testing. Stock solutions were diluted using complete RPMI to obtain aliquots of 10 µg/mL. Then, three-fold serial dilution with complete RPMI gave the final six working concentrations (10, 3.33, 1.11, 0.37, 0.12, and 0.04 µg/mL) of each of the synthesized compounds. Amphotericin B deoxycholate and miltefosine, which were used as positive controls for the comparison of the antileishmanial activities of the test compounds, were also made in three-fold serial dilutions. All the prepared drugs were stored at − 20 °C and retrieved only during use.
Prior to the in vitro antipromastigote testing, serial concentrations of the target compounds were prepared by implementing three-fold dilutions. Then, in a 96-well microtiter plate, 100 µl of each of the three-fold serial dilutions of the target compounds were added in triplicate wells. Then 100 µl of Leishmania donovani suspension containing 3.0 × 10^6 promastigotes per milliliter were added in duplicates. In this experiment, the media and DMSO served as a negative control. Moreover, the concentration of DMSO was maintained below 1% of the target compound preparation to avoid the potential growth inhibition and interference effect of DMSO in the entire antipromastigote assay. Properly labelled plates which belong to the negative-control group, positive-control groups (treated with miltefosine and amphotericin B deoxycholate) and target compounds were then kept in a humidified atmosphere at 22 ℃ under 5% CO2 […]. To determine the viability Leishmania donovani isolates after the respective treatment, 10 µL of fluorochrome AlamarBlue® solution prepared by dissolving 12.5 mg resazurin in 100 mL of distilled water was added to each well and incubated for 4 h. Then, the fluorescence intensity of each well was determined using Victor3 Multilabel Counter (PerkinElmer, Waltham, MA, USA), at 530 nm and 590 nm, excitation and emission wavelengths, respectively. The IC50 values of the negative-control, positive-control groups and test-groups were determined from sigmoidal dose-response curves using GraphPad Prism 5.0 software (GraphPad Software, Inc., San Diego, CA, USA).

[3] = test system: male Swiss albino mice; test: in vivo oral acute toxicity test; conditions: for mortality in mice: oral 50, 100, 200 and 300 mg/kg, within 24 h and entire study period (14 days); for visible signs of overt toxicity: oral up to 300 mg/kg, physical and behavioral observations, 14 days
Experimental: For this purpose, the mice were randomly allocated into six groups each containing six mice. The first five groups of mice (Group 1–5) received each target compound solubilized using 1% gum acacia at a dose of 10, 50, 100, 200 and 300 mg/kg, respectively. The mice in last group (group 6, served as a negative control) were orally treated with the solvent used to dissolve the target compounds (1% gum acacia) at a maximum dose of 1 mL/100 gm of body weight. Each mouse was then monitored for gross changes such as salivation, loss of appetite, lacrimation, hair erection, diarrhea, convulsions, death, and other signs of overt toxicity.

[4] = test system: Leishmania major; design: method as in PMID 20235747; conditions: cited from earlier work
[5] = mice infected with P. berghei ANKA, oral, 48.46 µmol/kg for four days (CQ 25 mg/kg)
[6] = L. donovani promastigotes, 22 °C, AlamarBlue fluorescence, read-out: IC50 values, antipromastigote activity
[7] = po, mice infected with P. berghei ANKA, oral, 48.46 µmol/kg for four days (CQ 25 mg/kg), versus negative control
[8] = read-out: IC50 values, antipromastigote activity, L. donovani promastigotes, 22 °C, AlamarBlue fluorescence
[9] = L. donovani promastigotes, 22 °C, AlamarBlue fluorescence

SMILES: COc1cc(/C=C/c2nc3ccccc3c(=O)n2-c2ccc(C)cc2)ccc1OC(C)=O [Compound 10, 4-((1E)-2-(3,4-dihydro-4-oxo-3-p-tolylquinazolin-2-yl)vinyl)-2-methoxyphenyl acetate]
Mean survival time [1, 5]: 9.8 ± 0.24 days | % Parasitemia [1, 5]: 16.85 ± 0.39% | IC50 [2, 6]: 0.196 ± 0.042 µg/mL | mortality in mice [3]: none of the compounds caused mortality | visible signs of overt toxicity [3]: no visible signs of overt toxicity

IC50 [2, 6]: 0.046 ± 0.009 µg/mL (≈ 0.0498 µM)
SMILES: C[C@@H]1[C@H](O)[C@@H](C)/C=C/C=C/C=C/C=C/C=C/C=C/C=C/[C@H](O[C@@H]2O[C@H](C)[C@@H](O)[C@H](N)[C@@H]2O)C[C@@H]2O[C@](O)(C[C@@H](O)C[C@@H](O)[C@H](O)CC[C@@H](O)C[C@@H](O)CC(=O)O[C@H]1C)C[C@H](O)[C@H]2C(=O)O [Amphotericin B, amphotericin B deoxycholate, reference compound]

SMILES: COc1cc(/C=C/c2nc3ccccc3c(=O)n2-c2ccc(C)cc2)ccc1O [Compound 13, (E)-2-(4-hydroxy-3-methoxystyryl)-3-p-tolylquinazolin-4(3H)-one]
inhibition in vivo at 48.46 µmol/kg [1, 7]: > 50% | Mean survival time [1, 5]: 7.9 ± 0.3 days | % Parasitemia [1, 5]: 24.13 ± 0.29% | IC50 [2, 8]: 2.27 ± 0.214 µg/mL (≈ 5.89 µM)

IC50 values, antipromastigote activity [2, 9]: 3.191 ± 0.194 µg/mL (≈ 7.83 µM) | IC50 [2, 6]: 3.19 µg/mL (≈ 7.83 µM)
SMILES: CCCCCCCCCCCCCCCCOP(=O)([O-])OCC[N+](C)(C)C [Miltefosine, hexadecylphosphocholine, reference compound]

SMILES: CCN(CC)CCCC(C)Nc1ccnc2cc(Cl)ccc12 (stereo not drawn) [CQ, chloroquine phosphate, reference compound]
inhibition in vivo at 48.46 µmol/kg [1]: 100% | % Parasitemia [1, 5]: 0%

SMILES: O=c1c2ccccc2nc(/C=C/c2ccc([N+](=O)[O-])cc2)n1-c1ccccc1 [Compound 6, (E)-2-(4-nitrostyryl)-3-phenylquinazolin-4(3H)-one]
inhibition in vivo at 48.46 µmol/kg [1, 7]: < 50% | Mean survival time [1, 5]: 6.5 ± 0.3 days | % Parasitemia [1, 5]: 39.22 ± 0.7% | IC50 values, antipromastigote activity [2, 9]: 0.021 ± 0.008 µg/mL (≈ 0.0569 µM) | IC50 [2, 8]: 0.0212 µg/mL (≈ 0.0574 µM) | mortality in mice [3]: none of the compounds caused mortality | visible signs of overt toxicity [3]: no visible signs of overt toxicity

SMILES: Cc1ccc(-n2c(/C=C/c3ccc(O)cc3)nc3ccccc3c2=O)cc1 [Compound 12, (E)-2-(4-hydroxystyryl)-3-p-tolylquinazolin-4(3H)-one]
inhibition in vivo at 48.46 µmol/kg [1, 7]: > 50% | Mean survival time [1, 5]: 7.6 ± 1.12 days | % Parasitemia [1, 5]: 32 ± 0.5% | IC50 [2, 8]: 1.84 ± 0.168 µg/mL (≈ 5.2 µM)

SMILES: Cc1ccccc1-n1c(/C=C/c2ccc(O)cc2)nc2ccccc2c1=O [Compound 11, (E)-2-(4-hydroxystyryl)-3-o-tolylquinazolin-4(3H)-one]
inhibition in vivo at 48.46 µmol/kg [1, 7]: > 50% | Mean survival time [1, 5]: 7.3 ± 0.54 days | % Parasitemia [1, 5]: 25.27 ± 0.76% | IC50 [2, 8]: 0.185 ± 0.026 µg/mL (≈ 0.522 µM)

SMILES: O=c1c2ccccc2nc(-c2ccccc2)n1Cc1ccccc1 [III]
IC50, in vitro antileishmanial activity [4]: 48.91 µg/mL (≈ 157 µM)

SMILES: CC(=O)Oc1ccc(/C=C/c2nc3ccccc3c(=O)n2-c2ccccc2C)cc1 [Compound 8, 4-((1E)-2-(3,4-dihydro-4-oxo-3-o-tolylquinazolin-2-yl)vinyl)phenyl acetate]
Mean survival time [1, 5]: 9.4 ± 0.37 days | % Parasitemia [1, 5]: 19.57 ± 0.77% | IC50 [2, 8]: 3.33 ± 0.126 µg/mL | mortality in mice [3]: none of the compounds caused mortality | visible signs of overt toxicity [3]: no visible signs of overt toxicity

SMILES: Cc1ccccc1-n1c(/C=C/c2ccc(Cl)cc2)nc2ccccc2c1=O [Compound 7, (E)-2-(4-chlorostyryl)-3-o-tolylquinazolin-4(3H)-one]
inhibition in vivo at 48.46 µmol/kg [1, 7]: < 50% | Mean survival time [1, 5]: 6.9 ± 0.5 days | % Parasitemia [1, 5]: 35.69 ± 0.69% | IC50 [2, 8]: 3.25 ± 0.282 µg/mL (≈ 8.71 µM)
